# Source: patent publication US20250101436A1, “APTAMERS AND SMALL MOLECULE LIGANDS” (MeiraGTx UK II Limited, priority 2021, published 2025)
# Tested on: 12C6-1 riboswitch
# Assay: Firefly luciferase assay, Luci-12C6-1 riboswitch construct in transfected HEK 293 cells
# Assay type: cell-based, human
# Details: HEK 293 cells
# Source text: Riboswitch construct: Aptamers were synthesized by Integrated DNA Technologies, Inc. The synthesized aptamer sequence, here referred to as aptamer sequence 12C6-1, contains a putative TPP aptamer sequence (AP008955.1/944373-944459; CP030117.1/954080-954166; CP023474.1/977011-977097) with C at 5′ end and a complementary G at 3′ end flanking the putative TPP aptamer sequence: […] […] (SEQ ID NO: 1). Golden Gate cloning strategy (New England Biolabs, NEB) was used to clone the synthesized aptamer sequences into an intron-exon-intron cassette to replace the guanine aptamer in the G17 riboswitch cassette (see SEQ ID NO: 15 recited in WO 2016/126747, which is incorporated herein in its entirety) to generate riboswitch construct Luci-12C6-1.
row,Compound,activation of 12C6-1 and derivative riboswitches in regulating Luciferase expression (FIG. 4d)
1,O=C(O)CCC(=O)Nc1ccc2nccnc2c1 [compound 003],bind 12C6-1 and activate derivative riboswitches
2,O=C(CNc1cnccc1N1CCNCC1)Nc1ccc2nccnc2c1 [compound 005],bind 12C6-1 and activate derivative riboswitches
3,Cl.c1cc(N2CCNCC2)c(CNCc2ccc3nccnc3c2)cn1 [compound 008],bind 12C6-1 and activate derivative riboswitches
4,C=CN(CCN(C)C)Cc1ccc2nccnc2c1 [compound 009],bind 12C6-1 and activate derivative riboswitches
5,CN(C)CCNCc1ccc2nccnc2c1 [compound 011],bind 12C6-1 and activate derivative riboswitches

# Same assay, conditions: HEK 293 cells transfected with Luci-12C6-1
row,Compound,luciferase expression response
1,"CC(=C(CCO)SSCC1CCCO1)N(C=O)Cc1cnc(C)nc1N (stereo in doubt) [fursultiamine, reference compound]",induced luciferase gene expression in a dose-dependent manner
2,"Cc1ncc(C[n+]2csc(CCO[P@](=O)(O)OP(=O)(O)O)c2C)c(N)n1 [TPP, Thiamine Pyrophosphate, reference compound]",dose-dependent response
